In assay [1] the target is 5-hydroxytryptamine receptor 2A (Oryctolagus cuniculus). As to the kind of experiment: Binding affinity against rabbit aorta 5-HT2A receptor.
The target of assay [2] is 5-hydroxytryptamine receptor 1D (Bos taurus). As to the kind of experiment: Binding affinity against calf caudate 5-hydroxytryptamine 1D receptor.
For assay [3], the target named is 5-hydroxytryptamine receptor 2C (Cavia porcellus). Briefly: Binding affinity against guinea pig cortex 5-HT2C receptor in the presence of [3H]mesulergine.

This note sets out measurements from BindingDB's records for doi:10.1021/jm000956k (Glaxowellcome, 2001).

Where only a bound is given, the exact number is not on record here.

The IC50 is the concentration needed to halve the response being measured. For `CN(C)[C@H]1C[C@H](c2c[nH]c3ccc(CC4COC(=O)N4)cc32)C1` (stereo partly drawn), the IC50 in assay [1] was above 10 µM; in assay [2] it was 0.089 µM; in assay [3], above 10 µM.
